Holding throughout (type): functional
For one assay, the system named is Shigella boydii. Nature of the assay: Antimicrobial activity against Shigella boydii 51313 after 24 hrs by agar dilution method. The note with it: Shigella boydii, 51313, 24 h. Background: Agar dilution tests growth on a series of plates holding different concentrations.
Another assay relates to Staphylococcus aureus. Nature of the assay: Antimicrobial activity against Staphylococcus aureus 26003 after 24 hrs by agar dilution method. Conditions: Staphylococcus aureus, 26003, 24 h.
Another assay relates to Streptococcus pneumoniae. Nature of the assay: Antimicrobial activity against Streptococcus pneumoniae 31002 after 24 hrs by agar dilution method. The note with it: Streptococcus pneumoniae, 31002, 24 h.
The next assay deals with Shigella flexneri. As to the kind of experiment: Antimicrobial activity against Shigella flexneri 92475 after 24 hrs by agar dilution method. Conditions: Shigella flexneri, 92475, 24 h.
Assay [1] is described as follows: Antimicrobial activity against Streptomyces albus 260101 after 24 hrs by agar dilution method. The note with it: Streptomyces albus, 260101, 24 h.

Values after ≈ are worked out from the molar mass of the structure shown.

`CCCC[C@H](CN(O)C=O)C(=O)N1COC[C@H]1C(=O)Nc1ccc(C)cc1`: the MIC in the assay with Shigella boydii was more than 6.25 µg/mL; against Staphylococcus aureus it was 0.78 µg/mL (≈ 2.07 µM); in the assay with Streptococcus pneumoniae, 0.195 µg/mL (≈ 0.517 µM); against Shigella flexneri it was more than 6.25 µg/mL; in assay [1], 0.78 µg/mL (≈ 2.07 µM).
Take `CCCC[C@H](CN(O)C=O)C(=O)N1COC[C@H]1C(=O)Nc1ccc(N2CCOCC2)c(Cl)c1`: the MIC against Shigella boydii is 6.25 µg/mL (≈ 12.9 µM); with Staphylococcus aureus, 0.39 µg/mL (≈ 0.808 µM); against Streptococcus pneumoniae it was 0.098 µg/mL (≈ 0.203 µM); against Shigella flexneri, 6.25 µg/mL (≈ 12.9 µM); in assay [1] it was 0.39 µg/mL (≈ 0.808 µM).
Consider `CCCC[C@H](CN(O)C=O)C(=O)N1CO[C@H](C)[C@H]1C(=O)Nc1ccc(N2CCOCC2)c(F)c1`, for which the minimal inhibitory concentration (MIC) was more than 6.25 µg/mL with Shigella boydii; 0.78 µg/mL (≈ 1.62 µM) with Staphylococcus aureus; 0.195 µg/mL (≈ 0.406 µM) in the assay with Streptococcus pneumoniae; more than 6.25 µg/mL in the assay on Shigella flexneri; 1.56 µg/mL (≈ 3.25 µM) in assay [1].
With `CCCC[C@H](CN(O)C=O)C(=O)N1COC[C@H]1C(=O)Nc1ccc(OC)cc1`, the MIC with Shigella boydii was more than 6.25 µg/mL; against Staphylococcus aureus, 0.39 µg/mL (≈ 0.991 µM); in the assay on Streptococcus pneumoniae it was 0.195 µg/mL (≈ 0.496 µM); in the assay on Shigella flexneri, more than 6.25 µg/mL; in assay [1], 0.78 µg/mL (≈ 1.98 µM).
`CCCC[C@H](CN(O)C=O)C(=O)N1COC[C@H]1C(=O)Nc1ccccc1`: the MIC is more than 6.25 µg/mL against Shigella boydii; 0.39 µg/mL (≈ 1.07 µM) against Staphylococcus aureus; 0.195 µg/mL (≈ 0.537 µM) against Streptococcus pneumoniae; more than 6.25 µg/mL against Shigella flexneri; 0.39 µg/mL (≈ 1.07 µM) in assay [1].
Take `CCCC[C@H](CN(O)C=O)C(=O)N1CO[C@H](C)[C@H]1C(=O)Nc1ccc(F)cn1`: the MIC was 3.13 µg/mL (≈ 7.9 µM) with Shigella boydii; 1.56 µg/mL (≈ 3.94 µM) in the assay with Staphylococcus aureus; 0.39 µg/mL (≈ 0.984 µM) with Streptococcus pneumoniae; more than 6.25 µg/mL against Shigella flexneri; 0.39 µg/mL (≈ 0.984 µM) in assay [1].
In the case of `CCCC[C@H](CN(O)C=O)C(=O)N1COC[C@H]1C(=O)Nc1ccc(N2CCOCC2)cc1`, the MIC is 6.25 µg/mL (≈ 13.9 µM) against Shigella boydii; 1.56 µg/mL (≈ 3.48 µM) in the assay on Staphylococcus aureus; 0.39 µg/mL (≈ 0.87 µM) against Streptococcus pneumoniae; more than 6.25 µg/mL against Shigella flexneri; 0.78 µg/mL (≈ 1.74 µM) in assay [1].
Take `CCCC[C@H](CN(O)C=O)C(=O)N1CO[C@H](C)[C@H]1C(=O)Nc1ccc(F)cc1`: the MIC with Shigella boydii is 3.13 µg/mL (≈ 7.92 µM); against Staphylococcus aureus, 1.56 µg/mL (≈ 3.95 µM); in the assay on Streptococcus pneumoniae, 0.195 µg/mL (≈ 0.493 µM); in the assay with Shigella flexneri it was more than 6.25 µg/mL; in assay [1], 0.78 µg/mL (≈ 1.97 µM).
Turning to `CCCC[C@H](CN(O)C=O)C(=O)N1CO[C@H](C)[C@H]1C(=O)Nc1ccc(N2CCOCC2)c(Cl)c1`, the minimal inhibitory concentration (MIC) with Shigella boydii was more than 6.25 µg/mL; in the assay on Staphylococcus aureus, 0.78 µg/mL (≈ 1.57 µM); against Streptococcus pneumoniae, 0.098 µg/mL (≈ 0.197 µM); with Shigella flexneri, more than 6.25 µg/mL; in assay [1], 0.39 µg/mL (≈ 0.785 µM).
As to `CCCC[C@H](CN(O)C=O)C(=O)N1COC[C@H]1C(=O)NCc1ccccc1`, the MIC in the assay with Shigella boydii is more than 6.25 µg/mL; in the assay on Staphylococcus aureus, 0.78 µg/mL (≈ 2.07 µM); against Streptococcus pneumoniae, 0.78 µg/mL (≈ 2.07 µM); in the assay with Shigella flexneri it was more than 6.25 µg/mL; in assay [1], 1.56 µg/mL (≈ 4.13 µM).
With `CCCC[C@H](CN(O)C=O)C(=O)N1CO[C@H](C)[C@H]1C(=O)Nc1ccc(C)cc1`, the MIC in the assay on Shigella boydii is more than 6.25 µg/mL; with Staphylococcus aureus, 1.56 µg/mL (≈ 3.99 µM); with Streptococcus pneumoniae, 0.098 µg/mL (≈ 0.25 µM); against Shigella flexneri, more than 6.25 µg/mL; in assay [1], 0.78 µg/mL (≈ 1.99 µM).
As for `CCCC[C@H](CN(O)C=O)C(=O)N1COC[C@H]1C(=O)Nc1ccc(F)cn1`, the MIC came to 3.13 µg/mL (≈ 8.19 µM) against Shigella boydii; 0.78 µg/mL (≈ 2.04 µM) against Staphylococcus aureus; 0.098 µg/mL (≈ 0.256 µM) against Streptococcus pneumoniae; 3.13 µg/mL (≈ 8.19 µM) against Shigella flexneri; 0.39 µg/mL (≈ 1.02 µM) in assay [1].
For the molecule `CCCC[C@H](CN(O)C=O)C(=O)N1COC[C@H]1C(=O)Nc1ccc(N2CCOCC2)c(F)c1`, the MIC with Shigella boydii was more than 6.25 µg/mL; with Staphylococcus aureus, 0.78 µg/mL (≈ 1.67 µM); in the assay with Streptococcus pneumoniae, 0.098 µg/mL (≈ 0.21 µM); against Shigella flexneri, more than 6.25 µg/mL; in assay [1], 0.78 µg/mL (≈ 1.67 µM).
Consider `CCCC[C@H](CN(O)C=O)C(=O)N1COC[C@H]1C(=O)Nc1c(F)cccc1F`, for which the minimal inhibitory concentration (MIC) is more than 6.25 µg/mL with Shigella boydii; 0.39 µg/mL (≈ 0.976 µM) against Staphylococcus aureus; 0.195 µg/mL (≈ 0.488 µM) against Streptococcus pneumoniae; more than 6.25 µg/mL in the assay with Shigella flexneri; 0.39 µg/mL (≈ 0.976 µM) in assay [1].
Take `CCCC[C@H](CN(O)C=O)C(=O)N1COC[C@H]1C(=O)Nc1ccc(F)cc1`: the MIC was more than 6.25 µg/mL in the assay on Shigella boydii; 0.39 µg/mL (≈ 1.02 µM) against Staphylococcus aureus; 0.195 µg/mL (≈ 0.511 µM) against Streptococcus pneumoniae; more than 6.25 µg/mL in the assay on Shigella flexneri; 0.39 µg/mL (≈ 1.02 µM) in assay [1].
In the case of `CCCC[C@H](CN(O)C=O)C(=O)N1CO[C@H](C)[C@H]1C(=O)Nc1ccc(F)c[n+]1[O-]`, the MIC against Shigella boydii is more than 6.25 µg/mL; against Staphylococcus aureus, 1.56 µg/mL (≈ 3.78 µM); with Streptococcus pneumoniae, 0.195 µg/mL (≈ 0.473 µM); in the assay with Shigella flexneri, more than 6.25 µg/mL; in assay [1], 0.78 µg/mL (≈ 1.89 µM).
Regarding `CCCC[C@H](CN(O)C=O)C(=O)N1CCC[C@H]1C(=O)Nc1ccc(F)c[n+]1[O-]`, the MIC against Shigella boydii is 6.25 µg/mL (≈ 15.8 µM); against Staphylococcus aureus, 0.39 µg/mL (≈ 0.984 µM); with Streptococcus pneumoniae it was 0.195 µg/mL (≈ 0.492 µM); in the assay on Shigella flexneri, more than 6.25 µg/mL; in assay [1], 0.39 µg/mL (≈ 0.984 µM).
As to `CCCC[C@H](CN(O)C=O)C(=O)N1COC[C@H]1C(=O)N[C@@H](C)c1ccccc1`, the MIC was more than 6.25 µg/mL with Shigella boydii; 1.56 µg/mL (≈ 3.99 µM) against Staphylococcus aureus; 0.195 µg/mL (≈ 0.498 µM) in the assay with Streptococcus pneumoniae; more than 6.25 µg/mL against Shigella flexneri; 1.56 µg/mL (≈ 3.99 µM) in assay [1].
For `CCCC[C@H](CN(O)C=O)C(=O)N1COC[C@H]1C(=O)Nc1ccc(F)c[n+]1[O-]`, the MIC against Shigella boydii was 3.13 µg/mL (≈ 7.86 µM); against Staphylococcus aureus, 0.78 µg/mL (≈ 1.96 µM); against Streptococcus pneumoniae, 0.195 µg/mL (≈ 0.489 µM); against Shigella flexneri it was more than 6.25 µg/mL; in assay [1], 0.78 µg/mL (≈ 1.96 µM).

The term MIC denotes the least concentration at which growth counts as inhibited. A low value points to greater potency.

Values taken from ChEMBL document CHEMBL1681648, “Synthesis and in vitro antibacterial activity of oxazolidine LBM-415 analogs as peptide deformylase inhibitors” (2011).
